Test results reported in ChEMBL document CHEMBL3621065, “Structure-activity relationship studies of SETD8 inhibitors” (Medchemcomm, 2014).

Biological target: T1, N-lysine methyltransferase KMT5A (Homo sapiens, UniProt Q9NQR1)
T1 sequence (Q9NQR1 whole entry): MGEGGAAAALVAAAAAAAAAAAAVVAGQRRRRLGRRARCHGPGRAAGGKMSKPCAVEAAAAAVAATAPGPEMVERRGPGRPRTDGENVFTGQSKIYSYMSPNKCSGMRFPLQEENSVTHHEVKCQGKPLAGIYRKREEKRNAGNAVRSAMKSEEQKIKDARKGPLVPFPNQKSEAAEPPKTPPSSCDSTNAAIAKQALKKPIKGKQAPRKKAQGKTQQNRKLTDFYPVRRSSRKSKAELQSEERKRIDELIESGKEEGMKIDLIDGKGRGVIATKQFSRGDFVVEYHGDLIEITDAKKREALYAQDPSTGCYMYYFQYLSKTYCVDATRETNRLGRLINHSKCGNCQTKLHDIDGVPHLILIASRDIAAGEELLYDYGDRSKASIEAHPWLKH
Assay: Inhibition of human SETD8 catalytic domain expressed in Escherichia coli assessed as reduction in transfer of tritiated methyl group from [3H]SAM to biotinylated H4 (1 to 24) peptide substrate by scintillation proximity assay

IC50 [µM]	SMILES
> 250	COc1cc2nc(N3CCCC3)nc(NCC(=O)NCCN3CCN(C)CC3)c2cc1OC
> 250	COc1cc2nc(N3CCCC3)nc(N[C@H]3CC[C@H](N)CC3)c2cc1OC
> 250	COc1cc2nc(N3CCCC3)nc(N[C@H]3CC[C@H](CN)CC3)c2cc1OC
> 250	COc1cc2nc(N3CCCC3)nc(NCC(=O)NCCN3CCCC3)c2cc1OC
> 250	COc1cc2nc(N3CCCC3)nc(NCC(=O)NCCN3CCNCC3)c2cc1OC
> 250	COc1cc2nc(N(C)CCN3CCCC3)nc(NCCCCCN3CCCC3)c2cc1OC
> 250	COc1cc2nc(N(C)CCCN3CCCC3)nc(NCCCCCN3CCCC3)c2cc1OC
> 250	COc1cc2nc(N(C)CCCCN3CCCC3)nc(NCCCCCN3CCCC3)c2cc1OC
> 250	COc1cc2nc(N(C)CCCCCN3CCCC3)nc(NCCCCCN3CCCC3)c2cc1OC
> 250	COc1cc2nc(N(C)c3ccccc3)nc(NCCCCCN3CCCC3)c2cc1OC
> 250	COc1ccc(N(C)c2nc(NCCCCCN3CCCC3)c3cc(OC)c(OC)cc3n2)cc1
> 250	COc1cc2nc(N(C)c3ccc([N+](=O)[O-])cc3)nc(NCCCCCN3CCCC3)c2cc1OC
> 250	COc1cc2nc(Nc3ccccc3)nc(NCCCCCN3CCCC3)c2cc1OC
> 250	COc1ccc(Nc2nc(NCCCCCN3CCCC3)c3cc(OC)c(OC)cc3n2)cc1
> 250	COc1cc2nc(Nc3ccc(C(F)(F)F)cc3)nc(NCCCCCN3CCCC3)c2cc1OC
> 250	COc1cc2nc(Nc3ccc([N+](=O)[O-])cc3)nc(NCCCCCN3CCCC3)c2cc1OC
> 250	COc1cc2nc(-c3ccccc3)nc(NCCCCCN3CCCC3)c2cc1OC
> 250	COc1ccc(-c2nc(NCCCCCN3CCCC3)c3cc(OC)c(OC)cc3n2)cc1
> 250	COc1cc2nc(-c3ccc(C(F)(F)F)cc3)nc(NCCCCCN3CCCC3)c2cc1OC
> 250	COc1cc2nc(-c3ccc(F)cc3)nc(NCCCCCN3CCCC3)c2cc1OC
> 250	c1ccc2c(NCCCCCN3CCCC3)nc(N3CCCC3)nc2c1
